Assay results published in patent US7071190B2, “Inhibitors to tubulin polymerization” (Rigel Pharmaceuticals, Inc., priority 2002, dated 2006).
Read-outs that look alike come from different tables or passages of the source.

Tested on: A549 cells
Test: Bromodeoxyuridine (BrdU) proliferation assay
Assay type: cell-based, human
Settings: for IC50: BrdU ELISA 48 hours after addition of compound, tested 0.03-10 uM, cell line not given (A549 method; SW-480 and MDA-MB-231 also used), read-out: Assay Result (IC50μM); for Activity ranking: most active compounds of the invention / Activity ranking: particularly active examples of the compounds of the invention: antiproliferative activity
Procedure: In order to determine the antiproliferative activity of microtubule inhibitors, A549 cells were plated in 96 well plates at 2000 cells/well 24 hours prior to the addition of a compound of the invention in 80 ul growth media (F12K, 10% FBS, Pen/Strep). Prior to addition to cells, compounds were solubilized in 100% DMSO to 5 mM and serially diluted in 6 semi-log steps in 100% DMSO. The diluted compounds were added to cells by two 15.8-fold dilution steps, the first being a dilution into a 23% ethanol/H2O mixture and the second being a dilution into growth media. Finally, these dilutions were followed by a 1:1 dilution onto cells. The resulting final solvent concentration was 0.2% DMSO/0.75% ethanol. Compounds were tested at final concentrations of 10, 3, 1, 0.3, 0.1 and 0.03 uM. Forty-eight hours after the addition of compound, the effects on cellular proliferation were measured using a cell proliferation BrdU ELISA (Roche Molecular Biochemicals, Cat.#1 669 915).

| Compound | IC50 (Homo sapiens, A549, 48 h) [µM] | Activity ranking: most active compounds of the invention | Activity ranking: particularly active examples of the compounds of the invention | IC50 [µM] |
| --- | --- | --- | --- | --- |
| CCCNC(=S)NNc1ncnc2cc(-c3ccccc3)sc12 [Compound 71] | 0.02 | most active | particularly active | – |
| S=C(NC[C@H]1CCCO1)NNc1ncnc2cc(-c3ccccc3)sc12 [Compound 64] | 0.188 | most active | particularly active | – |
| COc1cccc(NC(=S)NNc2ncnc3cc(-c4ccccc4)sc23)c1 [Compound 5] | 0.49 | most active | particularly active | – |
| COc1cc([N+](=O)[O-])ccc1NC(=S)NNc1ncnc2cc(-c3ccccc3)sc12 [Compound 17] | – | – | particularly active | 5.11 |
| Cc1cccc(-c2cc3ncnc(NNC(=S)NCC4COC(C)(C)O4)c3s2)c1 (centres unmarked) [Compound 82] | – | – | particularly active | – |
| COCCNC(=S)NNc1ncnc2cc(-c3ccc(OC)cc3)sc12 [Compound 92] | 1.19 | – | particularly active | – |
| S=C(NNc1ncnc2cc(-c3ccccc3)sc12)N[C@@H]1CCC[C@H]1OCc1ccccc1 [Compound 22] | 5.57 | – | particularly active | – |
| Cc1cccc(-c2cc3ncnc(NNC(=S)NCCCO)c3s2)c1 [Compound 48] | 1.43 | – | particularly active | – |
| COc1ccc(OC)c(NC(=S)NNc2ncnc3cc(-c4ccccc4)sc23)c1 [Compound 16] | 0.998 | most active | particularly active | – |
| Cc1cccc(-c2cc3ncnc(NNC(=S)NC(C)C)c3s2)c1 [Compound 86] | 0.026 | most active | particularly active | – |
| OCCCCNC(=S)NNc1ncnc2cc(-c3ccccc3)sc12 [Compound 28] | 6.31 | – | particularly active | – |
| COC(=O)CCNC(=S)NNc1ncnc2cc(-c3ccccc3)sc12 [Compound 76] | 0.187 | most active | particularly active | – |
| Cc1cc(C)cc(-c2cc3ncnc(NNC(=S)Nc4ccccc4)c3s2)c1 [Compound 50] | 0.927 | most active | particularly active | – |
| CNC(=S)NNc1ncnc2cc(-c3ccccc3)sc12 [Compound 70] | 1.61 | – | particularly active | – |
| CCNC(=S)NNc1ncnc2cc(-c3cccc(C)c3)sc12 [Compound 84] | 0.113 | most active | particularly active | – |
| COCCNC(=S)NNc1ncnc2cc(-c3ccccc3)sc12 [Compound 73] | 0.202 | most active | particularly active | – |
| Cc1ccc(-c2cc3ncnc(NNC(=S)Nc4ccccc4)c3s2)cc1 [Compound 31] | 0.369 | most active | particularly active | – |
| S=C(NNc1ncnc2cc(-c3ccc4c(c3)OCO4)sc12)NC1CC1 [Compound 56] | – | – | particularly active | – |
| COCCCNC(=S)NNc1ncnc2cc(-c3cccc(C)c3)sc12 [Compound 89] | 0.028 | most active | particularly active | – |
| COc1ccc(NC(=S)NNc2ncnc3cc(-c4ccccc4)sc23)c(OC)c1 [Compound 13] | – | most active | particularly active | 0.38 |
| CC(C)NC(=S)NNc1ncnc2cc(-c3ccccc3)sc12 [Compound 72] | 0.024 | most active | particularly active | – |
| S=C(NCc1ccccc1)NNc1ncnc2cc(-c3ccccc3)sc12 [Compound 57] | 0.23 | most active | particularly active | – |

| Compound | IC50 (Homo sapiens, A549, 48 h) [µM] | Activity ranking: most active compounds of the invention | Activity ranking: particularly active examples of the compounds of the invention | IC50 [µM] |
| --- | --- | --- | --- | --- |
| CCCNC(=S)NNc1ncnc2cc(-c3cccc(C)c3)sc12 [Compound 85] | 0.044 | most active | particularly active | – |
| COCCNC(=S)NNc1ncnc2cc(-c3cc(C)cc(C)c3)sc12 [Compound 100] | 0.013 | most active | particularly active | – |
| Cc1cc(C)cc(-c2cc3ncnc(NNC(=S)NCC4CCCO4)c3s2)c1 (centres unmarked) [Compound 98] | 0.025 | most active | particularly active | – |
| CCOC(=O)c1ccccc1NC(=S)NNc1ncnc2cc(-c3ccccc3)sc12 [Compound 10] | 1.33 | – | particularly active | – |
| COCCNC(=S)NNc1ncnc2cc(-c3cccc(C(F)(F)F)c3)sc12 [Compound 91] | 2.2 | – | particularly active | – |
| COc1ccc(NC(=S)NNc2ncnc3cc(-c4ccccc4)sc23)cc1OC [Compound 15] | 6.7 | – | particularly active | – |
| Cc1cccc(-c2cc3ncnc(NNC(=S)NC[C@@H]4CCCO4)c3s2)c1 [Compound 80] | 0.151 | most active | particularly active | – |
| S=C(NNc1ncnc2cc(-c3ccccc3)sc12)Nc1ccccc1 [Compound 2] | – | most active | particularly active | 0.39 |
| NC(=S)NNc1ncnc2cc(-c3ccccc3)sc12 [Compound 26] | 5.75 | – | particularly active | – |
| S=C(NNc1ncnc2cc(-c3ccc4c(c3)OCO4)sc12)Nc1ccccc1 [Compound 52] | – | – | particularly active | – |
| Cc1ccc(-c2cc3ncnc(NNC(=S)NC4CC4)c3s2)cc1C [Compound 55] | 0.15 | most active | particularly active | – |
| Cc1ccc(-c2cc3ncnc(NNC(=S)NC4CC4)c3s2)cc1 [Compound 38] | 0.121 | most active | particularly active | – |
| Cc1cccc(-c2cc3ncnc(NNC(=S)NCC4CCCO4)c3s2)c1 (centres unmarked) [Compound 79] | 0.719 | most active | particularly active | – |
| COc1ccc(NC(=S)NNc2ncnc3cc(-c4ccccc4)sc23)c(OC)c1 [Compound 14] | – | – | – | 26.7 |
| S=C(NNc1ncnc2cc(-c3ccccc3)sc12)Nc1cccnc1 [Compound 25] | 6.44 | – | particularly active | – |
| Cc1cccc(-c2cc3ncnc(NNC(=S)NC4CCCC4)c3s2)c1 [Compound 46] | 0.256 | most active | particularly active | – |
| COc1ccccc1NC(=S)NNc1ncnc2cc(-c3ccccc3)sc12 [Compound 6] | 0.329 | most active | particularly active | – |
| COCCCNC(=S)NNc1ncnc2cc(-c3ccccc3)sc12 [Compound 74] | 0.054 | most active | particularly active | – |
| Cc1cc(C)cc(-c2cc3ncnc(NNC(=S)NC(C)C)c3s2)c1 [Compound 99] | 0.086 | most active | particularly active | – |
| COCCNC(=S)NNc1ncnc2cc(-c3ccc(C)cc3)sc12 [Compound 87] | 0.166 | most active | particularly active | – |
| Cc1cccc(-c2cc3ncnc(NNC(=S)NCc4ccco4)c3s2)c1 [Compound 83] | 0.127 | most active | particularly active | – |
